# From patent publication US20180148418A1, “AMIDO-SUBSTITUTED CYCLOHEXANE DERIVATIVES” (Bayer Pharma Aktiengesellschaft, priority 2015, published 2018)
# Biological target: T1, TNKS1 (Homo sapiens, UniProt O95271)
# T1 construct: purchased BPS Bioscience, San Diego, USA 80579 (TNKS1 Histone Ribosylation Assay Kit)
# T1 sequence (O95271 1-1327): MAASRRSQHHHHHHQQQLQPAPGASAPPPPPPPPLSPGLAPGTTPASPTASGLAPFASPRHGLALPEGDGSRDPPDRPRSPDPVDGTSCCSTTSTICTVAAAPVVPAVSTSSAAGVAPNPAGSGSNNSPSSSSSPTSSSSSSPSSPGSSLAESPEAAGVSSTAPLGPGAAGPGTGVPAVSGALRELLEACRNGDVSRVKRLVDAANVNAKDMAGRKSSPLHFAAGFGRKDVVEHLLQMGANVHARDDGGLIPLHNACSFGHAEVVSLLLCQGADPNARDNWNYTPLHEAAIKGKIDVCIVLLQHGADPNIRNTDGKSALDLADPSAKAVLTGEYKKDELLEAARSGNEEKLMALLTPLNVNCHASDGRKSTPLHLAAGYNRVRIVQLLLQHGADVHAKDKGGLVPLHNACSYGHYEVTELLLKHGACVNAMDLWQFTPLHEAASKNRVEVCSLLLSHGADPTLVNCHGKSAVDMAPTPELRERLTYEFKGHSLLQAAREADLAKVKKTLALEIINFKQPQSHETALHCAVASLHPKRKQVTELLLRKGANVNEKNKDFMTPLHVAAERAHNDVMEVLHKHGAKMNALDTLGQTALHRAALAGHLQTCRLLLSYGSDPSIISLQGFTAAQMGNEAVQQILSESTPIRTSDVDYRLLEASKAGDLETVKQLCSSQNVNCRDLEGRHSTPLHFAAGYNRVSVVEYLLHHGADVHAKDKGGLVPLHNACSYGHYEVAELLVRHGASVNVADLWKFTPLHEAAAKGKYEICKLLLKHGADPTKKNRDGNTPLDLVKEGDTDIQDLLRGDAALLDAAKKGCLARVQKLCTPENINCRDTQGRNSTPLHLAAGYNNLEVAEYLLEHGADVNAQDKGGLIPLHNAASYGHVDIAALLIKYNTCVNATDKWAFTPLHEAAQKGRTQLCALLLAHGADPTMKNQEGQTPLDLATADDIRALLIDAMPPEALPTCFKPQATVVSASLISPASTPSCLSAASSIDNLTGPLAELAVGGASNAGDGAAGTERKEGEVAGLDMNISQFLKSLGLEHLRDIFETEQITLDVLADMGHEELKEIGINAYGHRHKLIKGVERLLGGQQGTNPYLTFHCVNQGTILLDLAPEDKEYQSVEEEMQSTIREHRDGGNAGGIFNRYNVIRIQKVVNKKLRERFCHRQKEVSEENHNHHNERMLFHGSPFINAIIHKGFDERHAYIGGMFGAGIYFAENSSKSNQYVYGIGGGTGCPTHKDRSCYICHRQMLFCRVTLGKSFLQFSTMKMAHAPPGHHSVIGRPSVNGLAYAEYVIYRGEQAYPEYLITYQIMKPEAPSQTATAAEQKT
# Assay: TNKS1 Assay B (auto-parsylation, [3H]-NAD+ SPA)
# Format: biochemical
# Settings: 6 nM TNKS1, auto-parsylation, over night at room temperature
# Method: The potency of selected compounds according to the invention was assessed applying a modified in vitro inhibition assay. Here, the TNKS1 catalyzed NAD^+-dependent ribosylation of the enzyme itself (auto-parsylation) was detected using [^3H]-NAD^+ as substrate and applying the scintillation proximity assay (SPA) method to detect tritium-labeled, parsylated TNKS1. The intensity of the readout signal is proportional to the incorporated [^3H]-NAD^+. Inhibition of TNKS1 leads to a decreased incorporation of [^3H]-NAD^+ and consequently to a lower readout signal intensity. The concentration of a test compound which inhibits the enzyme activity by 50% (corresponds to half of the normed readout signal intensity) is reported as IC50.
# Protocol Auto-Parsylation Assay
# The assay was conducted in a 96 well MTP format with the identical TNKS1 enzyme sample and NAD^+ sample as in the histone ribosylation assay with the following modifications: TNKS1 enzyme sample was diluted with a modified assay buffer (50 mM MES pH 7.0, 1 mM DTT, 0.01% Triton X-100) to a final concentration of 6 nM TNKS1 and 10×NAD^+ solution was diluted with the modified assay buffer (s. above) to a final 0.445×NAD^+ solution doped with 100 Bq/μl [^3H]-NAD^+[Catalog #NET443H050UC, Perkin Elmer, Waltham, Mass., USA]. Substrate solution (10 μl) was incubated with different test compound concentrations (2.5 ul in 10% DMSO in modified assay buffer) or control (2.5 ul 10% DMSO in modified assay buffer only) and enzyme (10 μl) over night at room temperature. Incorporated tritium was measured after addition of 50 μl SPA beads (1 mg/ml) [Catalog #RPNQ0095 20 mg/ml, Perkin Elmer, Waltham, Mass., USA; diluted 1:10 with Dulbecco's phosphate buffered saline, PBS Catalog #D8537, Sigma-Aldrich, Steinheim, Germany] and detection of the photon emission with a beta count plate reader [Wallac MicroBeta®, Perkin Elmer, Waltham, Mass., USA].
row,SMILES,IC50 [µM]
1,"Cc1cc(C)n2ncc(C(=O)N[C@H]3CC[C@H](C(=O)Nc4ccncc4Cl)CC3)c2n1 [Example 102, N-{trans-4-[(3-chloropyridin-4-yl)carbamoyl]cyclohexyl}-5,7-dimethylpyrazolo[1,5-a]pyrimidine-3-carboxamide]",0.33
2,"O=C(N[C@H]1CC[C@H](C(=O)Nc2ccncc2Cl)CC1)c1cnc2cccnn12 [Example 103, N-{trans-4-[(3-chloropyridin-4-yl)carbamoyl]cyclohexyl}imidazo[1,2-b]pyridazine-3-carboxamide]",0.52
3,"Cc1cnc2c(C(=O)N[C@H]3CC[C@H](C(=O)Nc4ccncc4Cl)CC3)cnn2c1 [Example 104, N-{trans-4-[(3-chloropyridin-4-yl)carbamoyl]cyclohexyl}-6-methyl pyrazolo[1,5-a]pyrimidine-3-carboxamide]",0.063
4,"O=C(N[C@H]1CC[C@H](C(=O)Nc2ccncc2Cl)CC1)c1cnn2cccnc12 [Example 105, N-{trans-4-[(3-chloropyridin-4-yl)carbamoyl]cyclohexyl}pyrazolo[1,5-a]pyrimidine-3-carboxamide]",0.19
5,"CCOC(=O)c1cnc2c(C(=O)N[C@H]3CC[C@H](C(=O)Nc4ccc(F)cc4Cl)CC3)cnn2c1 [Example 106, ethyl 3-({trans-4-[(2-chloro-4-fluorophenyl)carbamoyl]cyclohexyl}carbamoyl)pyrazolo[1,5-a]pyrimidine-6-carboxylate]",0.049
6,"O=C(N[C@H]1CC[C@H](C(=O)Nc2ccc(F)cc2Cl)CC1)c1cnn2ccc(N3CCOCC3)nc12 [Example 107, N-{trans-4-[(2-chloro-4-fluorophenyl)carbamoyl]cyclohexyl}-5-(morpholin-4-yl)pyrazolo[1,5-a]pyrimidine-3-carboxamide]",0.12
7,O=C(N[C@H]1CC[C@H](C(=O)Nc2ccc(F)cc2Cl)CC1)c1cnn2ccc(N3CCCC3)nc12 [Example 108],0.052
8,CN1CCN(c2ccn3ncc(C(=O)N[C@H]4CC[C@H](C(=O)Nc5ccc(F)cc5Cl)CC4)c3n2)CC1 [Example 109],0.062
9,"COCc1cc(C)n2ncc(C(=O)N[C@H]3CC[C@H](C(=O)Nc4ccc(F)cc4Cl)CC3)c2n1 [Example 110, N-{trans-4-[(2-chloro-4-fluorophenyl)carbamoyl]cyclohexyl}-5-(methoxymethyl)-7-methylpyrazolo[1,5-a]pyrimidine-3-carboxamide]",0.31
10,"COCc1cc(C)nc2c(C(=O)N[C@H]3CC[C@H](C(=O)Nc4ccc(F)cc4Cl)CC3)cnn12 [Example 111, N-{trans-4-[(2-chloro-4-fluorophenyl)carbamoyl]cyclohexyl}-7-(methoxymethyl)-5-methylpyrazolo[1,5-a]pyrimidine-3-carboxamide]",0.52
11,"COCc1cc(C)n2ncc(C(=O)N[C@H]3CC[C@H](C(=O)Nc4c(F)cc(F)cc4Cl)CC3)c2n1 [Example 112, N-{trans-4-[(2-chloro-4,6-difluorophenyl)carbamoyl]cyclohexyl}-5-(methoxymethyl)-7-methylpyrazolo[1,5-a]pyrimidine-3-carboxamide]",0.15
12,"Cc1nc2c(C(=O)N[C@H]3CC[C@H](C(=O)Nc4ccc(F)cc4Cl)CC3)cnn2c2c1CCC2 [Example 113, N-{trans-4-[(2-chloro-4-fluorophenyl)carbamoyl]cyclohexyl}-5-methyl-7,8-dihydro-6H-cyclopenta[e]pyrazolo[1,5-a]pyrimidine-3-carboxamide]",0.11
13,"CC(O)CNc1ccc2ncc(C(=O)N[C@H]3CC[C@H](C(=O)Nc4ccc(F)cc4Cl)CC3)n2n1 (stereo partly drawn) [Example 114, N-{trans-4-[(2-chloro-4-fluorophenyl)carbamoyl]cyclohexyl}-6-[(2-hydroxypropyl)amino]imidazo[1,2-b]pyridazine-3-carboxamide]",0.86
14,"CNC(=O)c1[nH]cnc1C(=O)NC12CCC(C(=O)Nc3ccc(F)cc3Cl)(CC1)CC2 [Example 115, N^4-{4-[(2-chloro-4-fluorophenyl)carbamoyl]bicyclo[2.2.2]oct-1-yl}-N^5-methyl-1H-imidazole-4,5-dicarboxamide]",0.16
